Assay results taken from PubChem BioAssay AID1963965 (Molecular Pharmacology Branch, DTP, NCI, 2024).
pIC50: −log10 of the molar value. Values belong to the compound of their own block, whether it stands above or below them.

System: 996289-038-R-J1-PDC spheroid viability
Experiment: Anticancer human tumor 996289-038-R-J1-PDC patient-derived colon adenocarcinoma cell line growth inhibition [PI3K]
Details: spheroids with HUVEC and MSC; for pIC50: curve of first compound; for viability, T/C: stronger effect = lower value
Text: Combinatorial screen of targeted agents with the PI3K inhibitors inavolisib, alpelisib, duvelisib, and copanlisib in multi-cell type tumor spheroids
A high-throughput screen of multi-cell type tumor spheroids was designed to identify active combinations of targeted small molecules and PI3K pathway inhibitors. Complex spheroids include a stromal component modeled by human endothelial cells (HUVEC) and fibroblasts modeled by human mesenchymal stem cells (MSCs). The concentration ranges selected for each drug and investigational agent were based upon clinically achievable concentrations if the clinical Cmax of the agent was known.
Compounds. The drugs and investigational agents: inavolisib (NSC800729), alpelisib (NSC765974), duvelisib (NSC772469), copanlisib (NSC816437), ipatasertib (NSC767898), afuresertib (NSC778305), talazoparib (NSC767125), sapanisertib (NSC764658), selumetinib (NSC741078), tovorafenib (DAY101, NSC766906), vemurafenib (NSC761431), ravoxertinib (NSC781343), sotorasib (NSC818433), MRTX1133 (NSC 836407), abemaciclib (NSC 768073), palbociclib (NSC758247), venetoclax (NSC 766270), SY5609 (NSC837396), enzalutamide (NSC755605), and darolutamide (NSC825331), were obtained from the National Cancer Institute (NCI) Developmental Therapeutics Program Chemical Repository. The FDA-approved anticancer drug set is available from the NCI Developmental Therapeutics Program. […] The stock solutions were prepared in dimethyl sulfoxide (DMSO, Sigma-Aldrich, St. Louis, MO, cat. D2650) at 800-fold the tested concentration and stored at -70 degrees C prior to their use. All drugs and investigational agents were tested over a range starting from a high concentration at or near the clinical Cmax and decreasing in half-log increments. If the clinical Cmax for an agent had not been determined, the highest concentration tested was 10 microM.
Cell Culture. All cells were maintained in an incubator at 37 degrees C and 5% CO2 with 95% humidity. The PDC lines were cultured according to standard operating procedures established by the NCI PDMR (https://pdmr.cancer.gov/sops/default.htm). All PDCs were thawed and cultured in Matrigel-coated flasks prepared with a working solution of 1X Ham's F-12 nutrient mix, without supplementation (Invitrogen, Waltham, MA, cat. 11765054), 100 U/mL penicillin-streptomycin (Invitrogen, cat. 15140122), and 2.5% Matrigel (Corning Inc., Corning, NY, cat. 354248) for the first three passages. The 354836-022-R-J1-PDC, 475296-252-R-J1-PDC, and 997726-040-R-J2-PDC lines were cultured in 6A media, which includes advanced DMEM/F-12 (Thermo Fisher Scientific, cat. 12634028), 10 mM HEPES (Thermo Fisher Scientific, cat. 15630080), 1X GlutaMAX supplement (Thermo Fisher Scientific, cat. 35050061), 0.1 mg/mL primocin (InvivoGen, San Diego, CA, cat. ant-pm-2), 10% defined fetal bovine serum, heat inactivated (HyClone Laboratories Inc., Logan, UT, cat. SH30070.03HI), 50% L-WRN conditioned media (ATCC, cat. CRL-3276), 1.25 mM N-Acetyl-L-cysteine (Sigma-Aldrich, cat. A9165), 10 mM nicotinamide (Sigma-Aldrich, cat. N0636), 1X B-27 supplement (Thermo Fisher Scientific, cat. 17504044), 1X N-2 supplement (Thermo Fisher Scientific, cat. 17502048), and 10 microM Y-27632 dihydrochloride (Tocris Bioscience, Bristol, United Kingdom, cat. 1254). The 624824-186-R-J2-PDC line was cultured in 6C/Colon 1B media, which includes all 6A media components plus 50 ng/mL human EGF recombinant protein (Thermo Fisher Scientific, cat. PHG0311). […]

[1] = second compound 0.0316 µM, first compound 0.0316 µM
[2] = second compound 0.0316 µM, first compound 0.1 µM
[3] = second compound 0.0316 µM, first compound 0.316 µM
[4] = second compound 0.0316 µM, first compound 1 µM
[5] = second compound 0.0316 µM, first compound 3.16 µM
[6] = second compound 0.0316 µM, first compound 10 µM
[7] = second compound 0.1 µM, first compound 0.0316 µM
[8] = second compound 0.1 µM, first compound 0.1 µM
[9] = second compound 0.1 µM, first compound 0.316 µM
[10] = second compound 0.1 µM, first compound 1 µM
[11] = second compound 0.1 µM, first compound 3.16 µM
[12] = second compound 0.1 µM, first compound 10 µM
[13] = second compound 0.316 µM, first compound 0.0316 µM
[14] = second compound 0.316 µM, first compound 0.1 µM
[15] = second compound 0.316 µM, first compound 0.316 µM
[16] = second compound 0.316 µM, first compound 1 µM
[17] = second compound 0.316 µM, first compound 3.16 µM
[18] = second compound 0.316 µM, first compound 10 µM
[19] = second compound 1 µM, first compound 0.0316 µM
[20] = second compound 1 µM, first compound 0.1 µM
[21] = second compound 1 µM, first compound 0.316 µM
[22] = second compound 1 µM, first compound 1 µM
[23] = second compound 1 µM, first compound 3.16 µM
[24] = second compound 1 µM, first compound 10 µM
[25] = second compound 3.16 µM, first compound 0.0316 µM
[26] = second compound 3.16 µM, first compound 0.1 µM
[27] = second compound 3.16 µM, first compound 0.316 µM
[28] = second compound 3.16 µM, first compound 1 µM
[29] = second compound 3.16 µM, first compound 3.16 µM
[30] = second compound 3.16 µM, first compound 10 µM
[31] = second compound 10 µM, first compound 0.0316 µM
[32] = second compound 10 µM, first compound 0.1 µM
[33] = second compound 10 µM, first compound 0.316 µM
[34] = second compound 10 µM, first compound 1 µM
[35] = second compound 10 µM, first compound 3.16 µM
[36] = second compound 10 µM, first compound 10 µM
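Further: spheroids exposed to compounds for seven days before viability read.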
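Wherever viability, T/C is given: luminescence used as a proxy for viable cell amount; percent viability relative to DMSO vehicle control as 100%.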

pIC50 (second compound 0.0316 µM): < 5.00
pIC50 (second compound 0.1 µM): < 5.00
pIC50 (second compound 0.316 µM): < 5.00
pIC50 (second compound 1 µM): < 5.00
pIC50 (second compound 3.16 µM): < 5.00
pIC50 (second compound 10 µM): < 5.00
Compound: C[C@@H](NC(=O)c1ncnc(N)c1Cl)c1ncc(C(=O)Nc2cc(C(F)(F)F)c(Cl)cn2)s1 + CC(Nc1ncnc2nc[nH]c12)c1cc2cccc(Cl)c2c(=O)n1-c1ccccc1
viability, T/C [1]: 102%
viability, T/C [2]: 102%
viability, T/C [3]: 98.6%
viability, T/C [4]: 128%
viability, T/C [5]: 137%
viability, T/C [6]: 126%
viability, T/C [7]: 115%
viability, T/C [8]: 85.2%
viability, T/C [9]: 125%
viability, T/C [10]: 120%
viability, T/C [11]: 124%
viability, T/C [12]: 111%
viability, T/C [13]: 105%
viability, T/C [14]: 103%
viability, T/C [15]: 116%
viability, T/C [16]: 108%
viability, T/C [17]: 142%
viability, T/C [18]: 130%
viability, T/C [19]: 105%
viability, T/C [20]: 108%
viability, T/C [21]: 95.8%
viability, T/C [22]: 108%
viability, T/C [23]: 135%
viability, T/C [24]: 120%
viability, T/C [25]: 83.3%
viability, T/C [26]: 93.9%
viability, T/C [27]: 115%
viability, T/C [28]: 119%
viability, T/C [29]: 140%
viability, T/C [30]: 116%
viability, T/C [31]: 93.1%
viability, T/C [32]: 102%
viability, T/C [33]: 102%
viability, T/C [34]: 98.1%
viability, T/C [35]: 122%
viability, T/C [36]: 101%

pIC50 (second compound 0.0316 µM): < 5.00
pIC50 (second compound 0.1 µM): < 5.00
pIC50 (second compound 0.316 µM): < 5.00
pIC50 (second compound 1 µM): 5.06
pIC50 (second compound 3.16 µM): < 5.00
pIC50 (second compound 10 µM): 5.12
Compound: Cn1nccc1Nc1nccc(-c2ccn(C(CO)c3ccc(Cl)c(F)c3)c(=O)c2)n1 (centres undefined) + CC(Nc1ncnc2nc[nH]c12)c1cc2cccc(Cl)c2c(=O)n1-c1ccccc1
viability, T/C [1]: 86.6%
viability, T/C [2]: 97.5%
viability, T/C [3]: 95.5%
viability, T/C [4]: 90.1%
viability, T/C [5]: 84.6%
viability, T/C [6]: 61.5%
viability, T/C [7]: 108%
viability, T/C [8]: 89.4%
viability, T/C [9]: 120%
viability, T/C [10]: 92.8%
viability, T/C [11]: 81.7%
viability, T/C [12]: 53.1%
viability, T/C [13]: 105%
viability, T/C [14]: 90.8%
viability, T/C [15]: 105%
viability, T/C [16]: 93.3%
viability, T/C [17]: 79.6%
viability, T/C [18]: 55.6%
viability, T/C [19]: 91.7%
viability, T/C [20]: 101%
viability, T/C [21]: 87.9%
viability, T/C [22]: 94.4%
viability, T/C [23]: 76.9%
viability, T/C [24]: 46.1%
viability, T/C [25]: 88.1%
viability, T/C [26]: 87.2%
viability, T/C [27]: 99.7%
viability, T/C [28]: 86.1%
viability, T/C [29]: 70.3%
viability, T/C [30]: 57.1%
viability, T/C [31]: 82.7%
viability, T/C [32]: 88.5%
viability, T/C [33]: 91.1%
viability, T/C [34]: 81.7%
viability, T/C [35]: 70.8%
viability, T/C [36]: 43.3%
